The target of test [1] is T1, Leucine-rich repeat serine/threonine-protein kinase 2 (Homo sapiens, UniProt Q5S007). The settings on record: HEK293; 0.03 to 3 uM.
Description: Inhibition of wild-type LRRK2 phosphorylation at Ser910 expressed in HEK293 cells at 0.03 to 3 uM after 90 mins by immunoblot analysis
In test [2] the test system is Mus musculus. Put plainly: Inhibition of LRRK2 phosphorylation at Ser910 in C57BL/6 mouse kidney at 100 mg/kg, po administered for 8 hrs followed by 2 hrs dosing. The format is functional, organism-based. More on the design: dose 100 mg/kg.
The target in test [3] is T1, Leucine-rich repeat serine/threonine-protein kinase 2. Put plainly: Inhibition of wild type LRRK2 phosphorylation at Ser910 in human lymphoblastoid cells at 0.03 to 3 uM after 90 mins by Western blot analysis. It is filed as cell-based.
The subject of test [4] is Mus musculus. Kind of test: Inhibition of LRRK2 phosphorylation at Ser935 in C57BL/6 mouse kidney at 100 mg/kg, po administered for 8 hrs followed by 2 hrs dosing. The format is functional, organism-based. More on the design: dose 100 mg/kg.
For test [5], the system named is Mus musculus. Kind of test: Inhibition of LRRK2 phosphorylation at Ser935 in C57BL/6 mouse spleen at 100 mg/kg, po administered for 8 hrs followed by 2 hrs dosing. It is filed as functional, organism-based. More on the design: dose 100 mg/kg.
The target of test [6] is T1, Leucine-rich repeat serine/threonine-protein kinase 2. The settings on record: HEK293; 0.03 to 3 uM. The source holds these as a separate data set.
Description: Inhibition of wild-type LRRK2 phosphorylation at Ser935 expressed in HEK293 cells at 0.03 to 3 uM after 90 mins by immunoblot analysis
The subject of test [7] is Mus musculus. Kind of test: Inhibition of LRRK2 phosphorylation at Ser910 in C57BL/6 mouse spleen at 100 mg/kg, po administered for 8 hrs followed by 2 hrs dosing. The format is functional, organism-based. More on the design: dose 100 mg/kg.
The target of test [8] is T1, Leucine-rich repeat serine/threonine-protein kinase 2. Put plainly: Inhibition of wild-type LRRK2 expressed in HEK293 cells using nictide and [gamma32]ATP as substrate.
Test [9] shares this target. Put plainly: Inhibition of wild type LRRK2 phosphorylation at Ser935 in human lymphoblastoid cells at 0.03 to 3 uM after 90 mins by Western blot analysis. It is filed as cell-based.

Calls of active or inactive are those of the source. The calls are words filed in the database; no cut-off is given here.

T1 sequence (Q5S007 whole entry): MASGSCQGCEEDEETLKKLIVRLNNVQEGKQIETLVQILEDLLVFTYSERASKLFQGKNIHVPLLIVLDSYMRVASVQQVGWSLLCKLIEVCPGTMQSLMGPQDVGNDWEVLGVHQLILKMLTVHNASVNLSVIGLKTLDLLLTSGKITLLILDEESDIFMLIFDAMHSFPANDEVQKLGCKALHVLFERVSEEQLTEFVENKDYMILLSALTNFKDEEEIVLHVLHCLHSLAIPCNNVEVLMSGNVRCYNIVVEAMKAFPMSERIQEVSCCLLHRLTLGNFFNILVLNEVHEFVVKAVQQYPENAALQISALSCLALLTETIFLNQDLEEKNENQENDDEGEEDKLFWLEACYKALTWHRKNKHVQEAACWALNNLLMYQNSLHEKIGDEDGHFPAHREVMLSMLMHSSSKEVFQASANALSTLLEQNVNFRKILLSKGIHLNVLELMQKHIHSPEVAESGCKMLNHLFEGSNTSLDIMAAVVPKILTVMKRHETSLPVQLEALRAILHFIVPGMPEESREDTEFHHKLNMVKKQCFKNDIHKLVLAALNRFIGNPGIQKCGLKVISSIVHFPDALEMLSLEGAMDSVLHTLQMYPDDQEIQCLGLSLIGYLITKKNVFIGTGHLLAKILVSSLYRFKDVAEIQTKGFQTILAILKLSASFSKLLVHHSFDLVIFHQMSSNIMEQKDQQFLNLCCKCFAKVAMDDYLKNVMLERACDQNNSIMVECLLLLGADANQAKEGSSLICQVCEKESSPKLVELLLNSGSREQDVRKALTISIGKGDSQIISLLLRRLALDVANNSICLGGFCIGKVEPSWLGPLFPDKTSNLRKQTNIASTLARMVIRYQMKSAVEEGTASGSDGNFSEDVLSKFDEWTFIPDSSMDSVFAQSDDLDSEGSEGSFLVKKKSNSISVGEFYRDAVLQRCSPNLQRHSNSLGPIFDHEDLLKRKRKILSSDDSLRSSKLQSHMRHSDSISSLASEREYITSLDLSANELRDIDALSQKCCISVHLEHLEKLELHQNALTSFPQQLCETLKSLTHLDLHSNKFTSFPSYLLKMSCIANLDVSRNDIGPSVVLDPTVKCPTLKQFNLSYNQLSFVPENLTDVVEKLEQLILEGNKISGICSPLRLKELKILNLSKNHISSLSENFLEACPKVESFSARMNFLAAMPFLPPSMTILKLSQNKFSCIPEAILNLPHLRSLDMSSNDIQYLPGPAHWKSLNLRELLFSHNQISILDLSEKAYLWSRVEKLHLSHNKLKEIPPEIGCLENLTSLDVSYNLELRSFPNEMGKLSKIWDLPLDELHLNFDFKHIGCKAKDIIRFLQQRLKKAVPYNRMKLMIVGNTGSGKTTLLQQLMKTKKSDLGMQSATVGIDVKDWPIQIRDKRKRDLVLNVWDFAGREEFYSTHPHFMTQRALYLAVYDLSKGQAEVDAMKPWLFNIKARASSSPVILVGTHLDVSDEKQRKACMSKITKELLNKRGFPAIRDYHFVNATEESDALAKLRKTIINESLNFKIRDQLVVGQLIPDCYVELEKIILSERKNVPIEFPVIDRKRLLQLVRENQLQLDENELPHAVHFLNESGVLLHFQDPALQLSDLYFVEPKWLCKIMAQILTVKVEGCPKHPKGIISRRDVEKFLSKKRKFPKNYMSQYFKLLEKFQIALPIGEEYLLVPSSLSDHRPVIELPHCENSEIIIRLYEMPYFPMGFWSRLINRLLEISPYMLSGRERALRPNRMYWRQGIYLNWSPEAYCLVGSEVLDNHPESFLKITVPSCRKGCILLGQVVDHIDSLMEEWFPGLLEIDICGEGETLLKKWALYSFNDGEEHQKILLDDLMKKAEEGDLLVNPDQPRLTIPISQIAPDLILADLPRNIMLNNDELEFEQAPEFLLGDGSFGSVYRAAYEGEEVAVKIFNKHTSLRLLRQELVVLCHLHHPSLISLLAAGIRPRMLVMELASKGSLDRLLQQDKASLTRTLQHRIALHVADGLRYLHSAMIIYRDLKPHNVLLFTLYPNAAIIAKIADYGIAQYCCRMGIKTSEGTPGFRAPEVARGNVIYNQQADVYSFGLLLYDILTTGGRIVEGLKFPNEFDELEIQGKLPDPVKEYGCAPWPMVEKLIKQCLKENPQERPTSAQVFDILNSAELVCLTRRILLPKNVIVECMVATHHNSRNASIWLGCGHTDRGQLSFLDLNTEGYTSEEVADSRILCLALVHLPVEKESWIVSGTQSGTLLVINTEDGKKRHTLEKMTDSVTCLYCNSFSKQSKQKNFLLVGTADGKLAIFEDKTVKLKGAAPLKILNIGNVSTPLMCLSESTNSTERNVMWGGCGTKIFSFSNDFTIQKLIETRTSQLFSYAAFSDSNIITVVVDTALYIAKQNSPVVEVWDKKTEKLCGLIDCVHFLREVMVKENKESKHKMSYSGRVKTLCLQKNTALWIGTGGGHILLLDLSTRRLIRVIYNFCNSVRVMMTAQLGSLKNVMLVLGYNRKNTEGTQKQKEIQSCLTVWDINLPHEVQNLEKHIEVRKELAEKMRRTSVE

Consider `COc1cc(C(=O)N2CCC(N3CCN(C)CC3)CC2)ccc1Nc1ncc2c(n1)N(C)c1ccccc1C(=O)N2C`, for which the inhibition entry (in test [1]; in the test on Mus musculus [2]; in [3]; in the test with Mus musculus [4]; in the test on Mus musculus [5]; in test [6]) was “Active” each time. In addition, the inhibition result (with Mus musculus [7]; in test [9]) was “Active” throughout. The concentration for half-maximal inhibition (IC50) in [8] stood at 13 nM.
